# Data published in patent publication US5965539A, “Inhibitors of prenyl transferases” (Univeristy of Pittsburgh, priority 1996, dated 1999).
# Read-outs that look alike come from different tables or passages of the source.
# Columns and labels:
# [1] = test system: Calu-1 human lung carcinoma
# Source text: (§1) Calu-1 (Panel A) and NCI-H810 cells (Panel B) were purchased from ATCC and grown in McCoy's 5A medium in 10% FBS (Fetal Bovine Serum) and RPMI 1640 in 10% FBS, respectively. The cells were harvested, resuspended in PBS and injected s.c. into the right and left flank of 8 week old female nude mice (10^7 cells/flank). Nude mice (Harlan Sprague Dawley, Indianapolis, Ind.) were maintained in accordance with the Institutional Animal Care and Use Committee (IACUC) procedures and guidelines. On day 32 after s.c. implantation of tumors, animals were dosed i.p. with 0.2 ml once daily for 36 days. […] The tumor volumes were determined by measuring the length (l) and the width (w) and calculating the volume (V=(l)×(w)^2 /2). Data are presented as the average volume of eight tumors in each group for each cell line. Statistical significance between control and treated groups were evaluated by using student t test (*P<0.05).
# (§2) In this model, tumors from two human lung carcinoma cell lines are implanted subcutaneously. One of these (Calu-1) harbors a K-Ras oncogenic mutation and has a deletion of the tumor suppressor gene p53. The other human lung carcinoma ([…]) has no Ras mutations.
# [2] = test system: Raf-transformed NIH 3T3 cells; details: 50 mg/kg once daily
# [3] = test system: Ras processing; details: 10 to 100 mg/kg, 5 hrs after last injection
# Protocol: (§3) A. Antitumor efficacy was carried out as described in FIG. 3 except that animals were randomly assigned to four groups each of 4 mice each (2 tumors per mouse). […] B. Ras processing was carried out 5 hours after the last treatement on day 17. Tumors were extracted from the animals, tissumized, and lysed in lysis buffer as described in FIG. 1. Lysates (25 μg) were electrophoresed on a 12.5% SDS-PAGE and immunoblotted with anti-Ras antibody Y13-238 as described previously. The blots were then reprobed with anti-Rap1A antibody (Santa Cruze Biotechnologies, Santa Cruz, Calif.).
# (§4) The tumor sizes at the end of 17 days were 2490 mm^3 for saline, 1793 mm^3 for 10 mg/kg, 1226 mm^3 for 50 mg/kg and 624 mm^3 for 100 mg/kg treated animals. […] Tumors from control animals contained only fully processed Ras which migrates faster in SDS-PAGE gels (FIG. 11B). […] Thus, the extent of tumor growth inhibition correlated with the extent of inhibition of Ras processing.
# [4] = test system: Rap1A processing; details: 100 mg/kg
# Protocol: as §3, §4
# [5] = test system: H-RasF transformed NIH 3T3 cells
# Protocol: as §3, §4
# [6] = Source text: as §2
# [7] = target: T1, GGTase I (Homo sapiens, UniProt P53609); assay: GGTase I activity assay: transfer of [3H]geranylgeranyl to recombinant H-Ras-CVLL, Daudi 60,000xg supernatant; format: biochemical
# T1 construct: FTase and GGTase I activities from 60,000×g supernatants of human Burkitt lymphoma (Daudi) cells; endogenous in cells; host or cells: human Burkitt lymphoma (Daudi) cells, 60,000xg supernatant (partially purified)
# T1 sequence (P53609 whole entry): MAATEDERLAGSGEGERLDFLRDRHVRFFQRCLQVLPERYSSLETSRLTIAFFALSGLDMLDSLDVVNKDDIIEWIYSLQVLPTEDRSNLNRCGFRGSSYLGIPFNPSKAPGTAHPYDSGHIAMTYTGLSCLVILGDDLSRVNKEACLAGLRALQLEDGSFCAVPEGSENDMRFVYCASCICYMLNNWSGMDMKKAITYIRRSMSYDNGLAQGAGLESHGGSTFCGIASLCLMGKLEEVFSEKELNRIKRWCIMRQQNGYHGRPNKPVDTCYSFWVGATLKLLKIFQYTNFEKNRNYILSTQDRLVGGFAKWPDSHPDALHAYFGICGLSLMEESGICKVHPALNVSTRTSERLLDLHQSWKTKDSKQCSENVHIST
# Protocol: FTase and GGTase I activities from 60,000×g supernatants of human Burkitt lymphoma (Daudi) cells (ATCC, Rockville, Md., USA) were assayed as described previously for FTase (41). Briefly, 100 μg of the supernatant was incubated in 50 mM Tris, pH 7.5, 50 μM ZnCl2, 20 mM KCl and 1 mM dithiothreitol (DTT). The reaction was incubated at […] for 30 min with recombinant Ha-Ras-CVLS (11 μM) and [^3 H]FPP (625 nM; 16.3 Ci/mmol) for FTase, and recombinant Ha-Ras-CVLL (5 μM) and [^3 H]geranylgeranylpyrophosphate (525 nM; 19.0 Ci/mmol) for GGTase I. The peptidomimetics were mixed with FTase and GGTase before adding to the reaction mixture.
# Human Burkitt lymphoma (Daudi) cells (ATCC, Rockville, Md.) were grown in suspension in RPMI 1640 medium containing 10% fetal bovine serum (FBS) and 1% Pen-Strep in a humidified 10% CO2 incubator at 37° C. The cells were harvested and sonicated in 50 mM Tris, pH 7.5, 1 mM EDTA, 1 mM EGTA, 25 μg/ml leupeptin, 1 mM phenylmethylsulfonyl fluoride. Homogenates were then spun at 12,000×g and the resulting supernatant further spun at 60,000×g. The supernatant was assayed for both FTase and GGTase I. Briefly, 100 μg of the supernatants was incubated in 50 mM Tris, pH 7.5, 50 μM ZnCl2, 20 mM KCl, 3 mM MgCl2 and 1 mM DTT. For FTase assays, the reaction was incubated at 37° C. for 30 minutes with recombinant H-Ras-CVLS (11 μM) and [^3 H] FPP (625 nM; 16.3 Ci/mmol). For GGTase assays, the reaction was also incubated for 30 minutes at 37° C. but with recombinant H-Ras-CVLL (5 μM) and [^3 H] GGPP (525 nM; 19.0 Ci/mmol). The reaction was stopped and passed through glass fiber filters to separate free and incorporated label. For inhibition studies, the peptidomimetics were premixed with FTase or GGTase I prior to adding the remainder of the reaction mixture. Recombinant H-Ras-CVLS was prepared as described previously (26) from bacteria (31). Recombinant H-Ras-CVLL was prepared from bacteria (32).
# FTase and GGTase I activities from 60,000×g supernatants of human Burkitt lymphoma (Daudi) cells (ATCC, Rockville, Md.) were assayed exactly as described previously for FTase (41). Inhibition studies were performed by determining the ability of Ras CAAX peptidomimetics to inhibit the transfer of [^3 H]-farnesyl and [^3 H]-geranylgeranyl from [^3 H]FPP and [^3 H]GGPP to H-ras-CVLS and H-Ras-CVLL, respectively (41).
# [8] = test system: NCI-H810 human lung carcinoma; details: 50 mg/kg once daily, 14 days of treatment
# Source text: as §1
# [9] = test system: K-Ras4B transformed NIH-3T3 cells; assay: Nude mouse xenograft, K-Ras4B transformed NIH-3T3 cells; format: in vivo, nude mice; details: for tumor size: two weeks
# Protocol: In contrast, tumors from animals treated once daily with GGTI-286 (25 mg/kg or 50 mg/kg) grew to a size of 1600 mm^3 or 900 mm^3, respectively (FIG. 22).
# [10] = test system: Rap1A processing; assay: Rap1A processing assay in NIH 3T3 cells overexpressing oncogenic H-Ras, immunoblot; format: cell-based; details: whole cells; for IC50: Mus musculus, NIH3T3
# Protocol: (§5) H-RasF cells (45) were seeded on day 0 in 100 mm Dishes (costar) in Dulbecco's modified Eagles medium (GIBCO) and allowed to grow to 40-60% confluency. […] On day 3, cells were washed one time with ice cold PBS and were collected and lysed by incubation for 30-60 min on ice in lysis buffer (41). Lysates were cleared (14,000 rpm, 4° C., 15 min) and supernatants collected. Equal amounts of lysate were separated on a 12.5% SDS-PAGE, transfered to nitrocellulose, and a western blot performed using a anti-Ras antibody (Y13-238, ATCC) or anti-Rap1A antibody (Santa Cruz Biotechnology, Santa Cruz, Calif.). Antibody reactions were visualized using peroxidase-conjugated goat anti-rat IgG for Y13-238 and peroxidase-conjugated goat anti-rabbit IgG for Rap1A and an enhanced chemiluminescence detection system (ECL; Amersham Corp.)
# (§6) H-Ras cells (45) and K-Ras4B Cells (32) were kind gifts from Dr. Channing Der and Dr. Adrienne Cox (University of North Carolina, Chapel Hill). Means of obtaining these cell lines will be easily recognized by the skilled practitioner. Cells were seeded on day 0 in 100 mm dishes in Dulbecco's modified Eagles medium supplemented with 10% calf serum and 1% penicillin-streptomycin. […] On day 3, cells were washed and lysed in lysis buffer containing 50 mM HEPES, pH 7.5, 10 mM NaCl, 1% TX-100, 10% glycerol, 5 mM MgCl2, 1 mM EGTA, 25 μg/ml leupeptin, 2 mM PMSF, 2 mM Na3 VO4, 1 mg/ml soybean trypsin inhibitor, 10 μg/ml aprotinin, 6.4 mg/ml Sigma-104® phosphatase substrate. Lysates were cleared (14,000 rpm, 4° C., 15 min) and equal amounts of protein were separated on a 12.5% SDS-PAGE, transferred to nitrocellulose, and immunoblotted using an anti-Ras antibody (Y13-259, ATCC) or an anti-RapIA antibody (SC-65, Santa Cruz Biotechnology, Santa Cruz, Calif.). Antibody reactions were visualized using either peroxidase-conjugated goat anti-rat 1 gG (for Y13-259), or peroxidase-conjugated goat anti-rabbit 1 gG (for Rap1A) and an enhanced chemiluminescence detection (ECL, Amersham Corp.), as described previously (41).
# [11] = test system: K-Ras4B processing; assay: K-Ras4B processing assay in NIH 3T3 cells overexpressing oncogenic K-Ras4B; format: cell-based; details: for IC50: Mus musculus, NIH3T3, whole cells
# Source text: H-Ras cells (45) and K-Ras4B Cells (32) were kind gifts from Dr. Channing Der and Dr. Adrienne Cox (University of North Carolina, Chapel Hill). Means of obtaining these cell lines will be easily recognized by the skilled practitioner.
# [12] = test system: H-Ras processing; assay: Ras processing assay in H-RasF cells (NIH 3T3 transformed with oncogenic H-Ras-CVLS), immunoblot; format: cell-based; details: for IC50: Mus musculus, NIH3T3, whole cells
# Protocol: as §5, §6
# [13] = test system: oncogenic H-Ras activation of MAPK; assay: Oncogenic H-Ras activation of MAP kinase, immunoblot; format: cell-based; details: 0-30 μM, FIG. 20
# Source text: (§7) Equal amounts of protein were separated on a 15% SDS-PAGE, transferred to nitrocellulose, and immunoblotted using an anti-MAP kinase antibody (erk2, monoclonal, UB1, Lake Placid, N.Y.). Antibody reactions were visualized using peroxidase-conjugated donkey anti-mouse IgG (Jackson ImmunoResearch Laboratories Inc., West Grove, Pa.) and an enhanced chemiluminescence detection system (ECL, Amersham Corp.)
# [14] = test system: oncogenic K-Ras4B activation of MAP kinase; assay: Oncogenic K-Ras4B activation of MAP kinase, immunoblot; format: cell-based
# Source text: as §7
smiles,measurement,setting,value
"CSCC[C@H](NC(=O)c1ccc(NC[C@@H](N)CS)cc1-c1ccccc1)C(=O)O [FTI-276, 4-N-[2(R)-Amino-3-mercaptopropyl]amino-2-phenylbenzoyl methionine]",average tumor size,"[1]; 50 mg/kg i.p. once daily, 64 days from tumor implantation",113 mm^3
same,tumor growth of Calu-1,[1]; 50 mg/kg once daily,essentially blocked tumor growth
same,growth of Raf-transformed NIH 3T3 cells,[2],had no effect
same,Ras processing in tumors,[3],progressive accumulation of unprocessed Ras
same,Rap1A processing in tumors,[4],did not inhibit Rap1A processing
same,tumor size at the end of 17 days,[5]; 10 mg/kg,1793 mm^3
same,tumor size at the end of 17 days,[5]; 50 mg/kg,1226 mm^3
same,tumor growth of H-RasF transformed NIH 3T3 cells,[5]; 50 mg/kg once daily,inhibited tumor growth
same,tumor size at the end of 17 days,[5]; 100 mg/kg,624 mm^3
same,weight loss,[6]; 50 mg/kg once daily for 36 days,no weight loss was observed
same,toxicity,[6]; dose escalated to 180 mg/kg once daily,lack of toxicity
same,IC50,"[7]; Table 1, read-out: GGTase I IC50",0.057 µM
same,IC50,"[7]; Table 5, read-out: In Vitro IC50 GGTase I",0.05 µM
same,IC50,[7]; read-out: GGTase I IC50,0.05 µM
same,average tumor size,[8],815 mm^3
"COC(=O)[C@H](CC(C)C)NC(=O)c1ccc(NC[C@@H](N)CS)cc1-c1ccccc1.Cl [GGTI-286, 4-[2(R)-amino-3-mercaptopropyl]amino-2-phenylbenzoyl-(S)-leucine methyl ester hydrochloride]",inhibition of tumor growth,[9]; 25 mg/kg once daily,50%
same,tumor size,[9]; 25 mg/kg once daily,1600 mm^3
same,inhibition of tumor growth,[9]; 50 mg/kg once daily,70%
same,tumor size,[9]; 50 mg/kg once daily,900 mm^3
same,IC50,"[10]; Table 5, read-out: In Vivo Processing IC50 Rap1A",2 µM
same,IC50,[10]; read-out: Rap1A processing IC50,2 µM
same,selectivity for inhibition of geranylgeranylation over farnesylation processing,[10],more than 15 fold
same,concentrations inhibiting K-Ras4B processing that had no effect on processing of farnesylated H-Ras,[11],1 to 3 µM
same,IC50,"[11]; Table 5, read-out: In Vivo Processing IC50 K-Ras",2 µM
same,IC50,[11]; read-out: K-Ras4B processing IC50,2 µM
same,concentration needed for accumulation of unprocessed H-Ras,[12]; FIG. 18,≥ 30 µM
same,IC50,"[12]; Table 5, read-out: In Vivo Processing IC50 H-Ras",> 30 µM
same,IC50,[12]; read-out: H-Ras processing IC50,> 30 µM
same,inhibition of oncogenic H-Ras activation of MAP kinase,[13],inhibited only slightly
same,concentration of complete block of K-Ras4B MAP kinase activation,[14],10 µM
same,IC50,"[14]; read-out: IC50, inhibition of K-Ras4B MAP kinase activation",1 µM
